{
  "source": "patent US20260284079A1",
  "about": "“LIPID PRODRUGS OF ALLOPR[…] USES THEREOF” (Seaport Therapeutics, Inc., priority 2023, published 2026)",
  "key": {"[1]": {"experiment": "Multiple ascending dose (MAD) study, PK (Example 1 Part 3)", "conditions": "allopregnanolone and combined allopregnanolone"}, "[2]": {"experiment": "Sleep Quality Scale (SQS)", "assay_type": "in vivo, human", "conditions": "all cohorts", "experimental": "The scale was administered in the morning, and subjects are asked to rate their sleep quality of the past 7 days, ranging from terrible (score of 0), poor (scores of 1-3), fair (scores of 4-6), good (scores of 7-9), and excellent (score of 10)."}, "[3]": {"experiment": "Food effect study, PK (Example 1 Part 2)"}, "[4]": {"experiment": "Video-oculography (VOG), saccades", "assay_type": "in vivo, human", "conditions": "day 1, all doses tested (250, 375, 500 mg)", "excerpt": "Video-oculography (VOG) is a non-invasive, visual method of measuring horizontal, vertical, and torsional components involved in eye tracking, making use of a head-mounted mask equipped with cameras. VOG was used to measure 3 assessment metrics: horizontal saccades (movement of eyes towards a point of fixation), horizontal anti-saccades (movement of eyes away from a point of fixation), and horizontal and vertical pursuits (fixation of eyes on a moving object).\nBinocular (both eyes) movements viewing were measured during the saccades test. During this 1-min trial, the visual target (small square) will jump from 0° to 10° to the right or to the left in a pseudorandom sequence. Duration of the target on screen vary pseudo-randomly from 1,500 to 2,000 ms to minimize anticipation of the subject. Then the visual target will be extinguished during 200 ms before the next move starting from the center. The participant is instructed to track the target on screen from center to side and from side to center without anticipation. The antisaccades test is identical to the saccades test in its procedure (with 10° jumps of the target) except that there is no extinction of the target. […]\nBinocular movements viewing were measured during the pursuit tests. […]"}, "[5]": {"experiment": "Quantitative electroencephalogram (qEEG)", "assay_type": "in vivo, human", "excerpt": "Quantitative Electroencephalogram (qEEG or EEG) has gained prominence as a useful biomarker in human drug studies as it is continuous, objective, repeatable, sensitive, reproducible, non-invasive and highly translatable from nonclinical data. EEG serves as biomarker in this protocol and provides PD outcomes for PK-PD modeling, thus enabling a more thorough understanding of the pharmacological effects of Compound 1. In addition, EEG can provide useful safety information regarding detection of epileptiform activity and any pro-convulsive effects of the study drug. Data outputs included spectral analysis and flat brain mapping, among others.\nEEG was collected at multiple time points before and after dosing on Day 1 and Day 7 of the MAD portion of the study except for Cohort 8. For a given recording, the subject was fitted with a cap containing the electrodes. For each session, recordings were collected for approximately 15 minutes while subjects are sitting quietly, and include portions with eyes open and eyes closed.\nThe qEEG is a quantitative measurement of brain oscillations considering different frequency levels. Resting-state brain activity was recorded in 2 conditions (eyes closed and eyes open). For each electrode, a spectral analysis of the EEG signal was carried out to derive absolute and relative powers in standard frequency bands. […]"}, "[6]": {"experiment": "Columbia-Suicide Severity Rating Scale (C-SSRS)", "assay_type": "in vivo, human", "conditions": "parts 1-3", "experimental": "The Columbia-Suicide Severity Rating Scale (C-SSRS) is a validated tool designed to quantify the severity of suicidal ideation and behavior. This scale was administered by individuals who have received training in its administration, as described in further detail at https://cssrs.columbia.edu/the-columbia-scale-c-ssrs/about-the-scale/."}},
  "data": [
    {"smiles": "CCCCCCCC(=O)OCC(COC(=O)CCCCCCC)OC(=O)CC(C)CC(=O)OCOC(=O)O[C@@H]1CC[C@@]2(C)[C@@H](CC[C@@H]3[C@@H]2CC[C@]2(C)[C@@H](C(C)=O)CC[C@@H]32)C1", "note": "(stereo partly drawn) [Compound 1]", "values": [
      {"measurement": "accumulation upon multiple dosing", "setting": "[1]; once daily", "value": "minimal accumulation"},
      {"measurement": "time to steady state", "setting": "[1]; once daily administration", "value": "Day 2 and Day 3"},
      {"measurement": "sleep quality as measured by SQS", "setting": "[2]", "value": "no meaningful improvements or worsening"},
      {"measurement": "maximal concentrations and exposure values, combined allopregnanolone compared to allopregnanolone", "setting": "[3]; 140 mg food effect study", "value": "approximately 15 times higher"},
      {"measurement": "increase of AUC0-t, AUC0-inf and Cmax in fed (LF) group compared to fasted and fed (HF) groups", "setting": "[3]; allopregnanolone and combined allopregnanolone, 140 mg", "value": "1.3 to 1.5", "unit": "fold"},
      {"measurement": "time of maximum drop of saccade peak velocity", "setting": "[4]", "value": 4, "unit": "hour post-dose"},
      {"measurement": "qEEG power for the β-band (β1, β2, β3)", "setting": "[5]; cohorts 4 (250 mg), 5 (375 mg), 6 (500 mg)", "value": "dose-dependent increase in power"},
      {"measurement": "time of maximum qEEG effects following administration", "setting": "[5]; day 1 and day 7", "value": "approximately 4 hours"},
      {"measurement": "suicidal ideation or suicidal behavior", "setting": "[6]", "value": "No subjects across all parts (1-3) reported any suicidal ideation or suicidal behavior"}
    ]}
  ]
}
